Data: US20250003900A1, “Micro Magnetic Resonance Relaxometry (MMRR) for Rapid and Non-Invasive Detection of Senescence in Mesenchymal Stem Cells” (Massachusetts Institute of Technology, priority 2021, published 2025)

Assays:
MSCs [1] = experiment: Immunofluorescence of proliferation marker EdU and senescence marker γ-H2AX foci in MSCs; assay type: cell-based; details: passage 3 MSCs, 1 μM doxorubicin for 24 hours
Method: Proliferation and senescence were measured simultaneously in order to correlate cell state directly with the MRR T2 values. MSCs from the same donor were serially passaged to passage 3, passage 5, and passage 6. As a positive control for senescence cells, cells from passage 3 were also treated with doxorubicin (DOX), a chemotherapy agent that produces DNA damage and reactive oxygen species to induce senescence in tumor cells. To measure DNA synthesis, EdU (5-ethynyl-2′-deoxyuridine) was used as an indicator of active cell proliferation (shown in green). In contrast, senescent cells are known to accumulate γ-H2AX foci (indicated in red). The proliferation (Pf) index and senescence (Sn) index were calculated from these images and plotted respectively (FIG. 6C and FIG. 6D). […]
(§1) Bone marrow-derived mesenchymal stem cells (MSC) were purchased from Lonza Pte. […] The cell number was calculated using a disposable hemocytometer (INCYTO, Korea) with the trypan blue exclusion method. […]
For detection of SA-βgal together with another senescence marker (γ-H2AX foci) (Ref. 66) and the proliferation marker, 5-ethynyl-2′-deoxyuridine (Edu) in the cells, the protocol was performed as previously mentioned (Ref. 67). […] Subsequently, Edu labeling was detected following the manufacturer's protocol (Invitrogen). […]

MSCs [2] = experiment: μMRR T2 measurement of MSCs with induced senescence; assay type: cell-based
Excerpt: Cytokines such as Transforming Growth Factor-β1 (TGFβ1) and interleukin-1 (IL-1) induce senescence in MSCs. TGFβ1 is a TGF family member that controls numerous cellular functions, including proliferation and cell death. (Refs. 51 and 52) IL-1 is a proinflammatory cytokine whose expression is associated with SASP. […] The senescent cells are more in TGF-β1 treated cells than IL-1 treated cells (FIG. 8), which is also confirmed here by its decreased T2 values than IL-1 treated cells.
Since MSCs donors show differences in proliferative ability, it is important to find the limit of detection (LOD) of MRR assay in terms of the cell number. […] Here, the LOD was analyzed by decreasing the concentration of cells even lower to 4 ×10^4, 2×10^4, and 1×10^4 cells for uMRR detection as shown in the FIG. 6H and FIG. 8. […] The batches of 1, 2, and 4 (×10^4 cells) in 4 μl detection volume of TGF-β1 treated and untreated MSCs were analyzed by MRR. […]
as §1
For all MRR experiments, the normalized concentration (3×10^5 cells) of MSCs have used unless otherwise stated. […] Proton transverse relaxation rates T2 were measured by standard Carr-Purcell-Meiboom-Gill (CPMG) pulse programme (Refs. 64 and 65) (FIG. 3B). […]

| Molecule | senescence (Sn) index (γ-H2aX) (MSCs [1]; compared to P3 and P5) | proliferation (Pf) index (MSCs [1]; compared with P3, P5 and P6) | T2 values of cytokine treated cells (MSCs [2]; MSCs treated with 10 ng and 20 ng/ml cytokine) | senescent cells in TGF-β1 treated cells versus IL-1 treated cells (MSCs [2]; confirmed by decreased T2 values than IL-1 treated cells) |
| --- | --- | --- | --- | --- |
| COc1cccc2c1C(=O)c1c(O)c3c(c(O)c1C2=O)C[C@@](O)(C(=O)CO)C[C@@H]3O[C@H]1C[C@H](N)[C@H](O)[C@H](C)O1 [DOX, doxorubicin] | more senescent cells | lowest |  |  |
| TGFβ1: TGF family member cytokine that induces senescence in MSCs |  |  | decreased with increasing cytokine concentrations | more |
